Experimental findings from patent US8877748B2, “Heterocyclic fused anthraquinone derivatives, manufacturing method and pharmaceutical composition using thereof” (National Defense Medical Center, priority 2012, dated 2014) are described below.

Bounds are passed on as bounds.

The first assay relates to PC-3 prostate cancer cell line. The assay can be described thus: SRB assay cell viability, PC-3 prostate cancer cell line. The assay is classed as cell-based, human. As to conditions: Homo sapiens, PC-3 prostate cancer cell line, Table II prints no unit, μM printed, read-out: SRB assay: 50% inhibition of cancer cell proliferation of sample concentration (IC50) of PC-3 prostate cancer cell line. (In general: In SRB staining, fixed cells bind dye roughly in proportion to their protein.)
In the case of `O=C1c2ccccc2C(=O)c2c1cc(O)c1nsnc21` [C4, Potassium 6,11-dioxo-6,11-dihydroanthra[2,1-c][1,2,5]thiadiazol-4-olate], the IC50 was 18.5 µM.

With `CCCNc1cc2c(c3nsnc13)C(=O)c1ccccc1C2=O` [C6, 4-(propylamino)anthra-[2,1-c][1,2,5] thiadiazol-6,11-dione], the IC50 was found to be 3.25 µM.

In the case of `CCN1CCN(c2cc3c(c4nsnc24)C(=O)c2ccccc2C3=O)CC1` [C9, 4-(4-ethyl-piperazin-1-yl)anthra[2,1-c] [1,2,5]thiadiazol-6,11-dione], the IC50 is 9.43 µM.

Take `O=C1c2ccccc2C(=O)c2c1cc(N1CCCCC1)c1nsnc21` [C11, 4-(piperidine-1-yl)anthra[2,1-c][1,2,5] thiadiazol-6,11-dione]: the IC50 was 1.38 µM.

As to `CCCCNc1cc2c(c3nsnc13)C(=O)c1ccccc1C2=O` [C12, 4-butylamino-anthra[2,1-c][1,2,5] thiadiazol-6,11-dione], the IC50 is 1.76 µM.

For the compound `CCNc1cc2c(c3nsnc13)C(=O)c1ccccc1C2=O` [C13, 4-ethylamino anthra[2,1-c][1,2,5] thiadiazol-6,11-dione], the IC50 is 2.97 µM.

`CCCSc1cc2c(c3nsnc13)C(=O)c1ccccc1C2=O` [C17, 4-(n-propylthio)-anthra[2,1-c][1,2,5] thiadiazol-6,11-dione]: the IC50 worked out at 3.69 µM.

Consider `COc1ccccc1Sc1cc2c(c3nsnc13)C(=O)c1ccccc1C2=O` [C23, 4-(2-methoxy-phenyl-thio)anthra[2,1-c] [1,2,5]thiadiazol-6,11-dione], for which the IC50 is over 15 µM.

Turning to `O=C1c2ccccc2C(=O)c2c1cc(Sc1ccc(Br)cc1)c1nsnc21` [C24, 4-(4-bromo-phenyl-thio)anthra[2,1-c] [1,2,5]thiadiazol-6,11-dione], the IC50 was over 15 µM.

In the case of `CC(C)c1ccc(Sc2cc3c(c4nsnc24)C(=O)c2ccccc2C3=O)cc1` [C26, 4-(4-isopropyl-phenyl-thio)anthra[2,1-c] [1,2,5]thiadiazol-6,11-dione], the IC50 was over 15 µM.

As for `O=C1c2ccccc2C(=O)c2c1cc(Sc1ccc(F)cc1)c1nsnc21` [C28, 4-(4-fluoro-phenyl-thio)anthra[2,1-c] [1,2,5]thiadiazol-6,11-dione], the IC50 was 6.7 µM.

Regarding `O=C1c2ccccc2C(=O)c2c1cc(Sc1ccccc1Cl)c1nsnc21` [C32, 4-(2-chloro-phenylthio)anthra[2,1-c] [1,2,5]thiadiazol-6,11-dione], the IC50 is over 15 µM.

As to `O=C1c2ccccc2C(=O)c2c1cc(Sc1cc(Cl)c(Cl)cc1Cl)c1nsnc21` [C34, 4-(2,4,5-trichloro-phenylthio)anthra[2,1-C] [1,2,5]thiadiazol-6,11-dione], the IC50 was over 15 µM.

Take `O=C1c2ccccc2C(=O)c2c1cc(Sc1cccc(F)c1)c1nsnc21` [C38, 4-(3-fluorophenylthio)anthra[2,1-c][1,2,5] thiadiazol-6,11-dione]: the IC50 was found to be 8.82 µM.

For `O=C1c2ccccc2C(=O)c2c1cc(Sc1cccc(Br)c1)c1nsnc21` [C40, 4-(3-bromophenylthio)anthra[2,1-c][1,2,5] thiadiazol-6,11-dione], the IC50 amounted to 12.4 µM.

In the case of `Cc1ccc(Sc2cc3c(c4nsnc24)C(=O)c2ccccc2C3=O)cc1` [C44, 4-(4-methyl-phenyl-thio)anthra[2,1-c] [1,2,5]thiadiazol-6,11-dione], the IC50 was over 15 µM.

On to `Cc1cc(C)cc(Sc2cc3c(c4nsnc24)C(=O)c2ccccc2C3=O)c1` [C49, 4-(3,5-dimethyl-phenyl-thio)anthra[2,1-c] [1,2,5]thiadiazol-6,11-dione], for which the IC50 is over 15 µM.

As for `CCc1ccccc1Sc1cc2c(c3nsnc13)C(=O)c1ccccc1C2=O` [C51, 4-(2-ethyl-phenylthio)anthra[2,1-c][1,2,5] thiadiazol-6,11-dione], the IC50 is over 15 µM.

On to `CC(C)c1ccccc1Sc1cc2c(c3nsnc13)C(=O)c1ccccc1C2=O` [C52, 4-(2-isopropyl-phenyl-thio)anthra[2,1-c] [1,2,5]thiadiazol-6,11-dione], for which the IC50 is over 15 µM.

Turning to `O=C1c2ccccc2C(=O)c2c1cc(SCc1ccccc1Cl)c1nsnc21` [C53, 4-(2-chloro-benzylthio)anthra[2,1-C] [1,2,5]thiadiazol-6,11-dione], the IC50 turned out to be 5.84 µM.

Consider `Cc1cccc(Nc2cc3c(c4nsnc24)C(=O)c2ccccc2C3=O)c1` [C62, 4-(m-tolylamino)anthra[2,1-c][1,2,5] thiadiazol-6,11-dione], for which the IC50 is 0.29 µM.

`O=C1c2ccccc2C(=O)c2c1cc(Nc1cccc(Cl)c1)c1nsnc21` [C63, 4-(3-chloro-phenylamino)anthra[2,1-c] [1,2,5]thiadiazol-6,11-dione]: the IC50 came out at 2.28 µM.

The same assay, now with this note: Homo sapiens, PC-3 prostate cancer cells, read-out: IC50 in PC-3 prostate cancer cells (cell viability analysis).
Regarding `O=C1c2ccccc2C(=O)c2c1cc(Sc1ccccc1Cl)c1nsnc21` [C32, 4-(2-chloro-phenylthio)anthra[2,1-c] [1,2,5]thiadiazol-6,11-dione], the IC50 was over 15 µM.

Staying with this assay, now noted: PC-3 prostate cancer cell line, Table II prints no unit, μM printed, read-out: SRB assay: 50% inhibition of cancer cell proliferation of sample concentration (IC50) of PC-3 prostate cancer cell line.
“4-(2-fluoro-phenyl thio)anthra[2,1-c] [1,2,5]thiadiazol oxazole-6,11-dione [C33]”: the IC50 is over 15 µM.

Consider “4-(2-mercapto-phenyl-thio)anthra[2,1-c] [1,2,5]thiadiazol oxazole-6,11-dione [C36]”, for which the IC50 was over 15 µM.

For the compound “4-(4-ethyl-phenyl-thio)anthra[2,1-c][1,2,5] thiadiazol oxazole-6,11-dione [C54]”, the IC50 is 7.5 µM.

Consider “4-(4-nitrophenyl thio)anthra[2,1-c][1,2,5] thiadiazol oxazole-6,11-dione [C45]”, for which the IC50 is 8.38 µM.

Turning to `O=C1c2ccccc2C(=O)c2c1cc(Sc1cccc(Cl)c1Cl)c1nsnc21` [C30, 4-(2,3-dichloro-phenylthio)anthra[2,1-c] [1,2,5]thiadiazol oxazole-6,11-dione], the IC50 was 11 µM.

Turning to `CC(C)(C)c1ccc(Sc2cc3c(c4nsnc24)C(=O)c2ccccc2C3=O)cc1` [C31, 4-(4-tert-butyl-alkylphenyl-thio)anthra [2,1-c][1,2,5]thiadiazol-6,11-dione], the IC50 is over 15 µM.

For the compound `Cc1cccc(Sc2cc3c(c4nsnc24)C(=O)c2ccccc2C3=O)c1` [C47, 4-(m-phenylmethylthio)anthra[2,1-c] [1,2,5]thiadiazol-6,11-dione], the IC50 is over 15 µM.

The same assay, now with this note: PC-3 prostate cancer cells, read-out: IC50 in PC-3 prostate cancer cells (cell viability analysis).
“4-(2-fluoro-phenyl thio)anthra[2,1-c] [1,2,5]thiadiazol oxazole-6,11-dione [C33]”: the IC50 was 5.48 µM.

For the compound “4-(phenethylthiol)anthra[2,1-c][1,2,5] thiadiazol-6,11-dione [C29]”, the IC50 came to 19 µM.
